IC50 data for 26 molecules are collected here from patent publication US10233182B2, “Substituted spirocyclic inhibitors of autotaxin” (X-Rx, Inc., priority 2014, dated 2019).

Some results are limits rather than exact numbers.

The target in this experiment is Autotaxin (Homo sapiens (Human), UniProt Q13822). The experiment can be described thus: Autotaxin LPC Cascade Assay. Format: biochemical. Conditions: Autotaxin 5 nM, LPC 100 μM, choline oxidase/HRP/Ampliflu Red fluorescence read-out, 2% DMSO, RT; read-out: IC50 ATX Activity. In outline: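 Choline liberated from LPC by autotaxin during 1 h, after a 10-min RT compound preincubation, was converted through choline oxidase/HRP to a fluorescent Ampliflu Red product.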
Regarding `CC(C)[C@@H](NC(=O)c1cc(C2CC2)ccc1F)C(=O)N1CCC2(CC1)C(=O)N(C)C(=O)N2c1ccc2[nH]ncc2c1` [Example 54, (R)—N-(1-(1-(1H-Indazol-5-yl)-3-methyl-2,4-dioxo-1,3,8-triazaspiro[4.5]decan-8-yl)-3-methyl-1-oxobutan-2-yl)-5-cyclopropyl-2-fluorobenzamide], the IC50 is less than 500 nM.

Turning to `COc1ccc(CN2C(=O)N(C)C(=O)C23CCN(C(=O)[C@H](NC(=O)c2cc(C(F)(F)F)ccc2F)C(C)C)CC3)cc1` [Example 91, (R)-2-Fluoro-N-(1-(1-(4-methoxybenzyl)-3-methyl-2,4-dioxo-1,3,8-triazaspiro[4.5]decan-8-yl)-3-methyl-1-oxobutan-2-yl)-5-(trifluoromethyl)benzamide], the IC50 was less than 500 nM.

On to `Cc1cc(F)cc(C(=O)N[C@@H](C(=O)N2CCC3(CC2)C(=O)N(C)CN3c2ccccc2)C(C)C)c1` [Example 140, (R)-3-Fluoro-5-methyl-N-(3-methyl-1-(3-methyl-4-oxo-1-phenyl-1,3,8-triazaspiro[4.5]decan-8-yl)-1-oxobutan-2-yl)benzamide], for which the IC50 was less than 500 nM. The figure for `CC(C)CCN1C(=O)N(C)C(=O)C12CCN(C(=O)[C@H](NC(=O)c1cc(C(F)(F)F)ccc1F)C(C)C)CC2` [Example 124, (R)-2-Fluoro-N-(1-(1-isopentyl-3-methyl-2,4-dioxo-1,3,8-triazaspiro[4.5]decan-8-yl)-3-methyl-1-oxobutan-2-yl)-5-(trifluoromethyl)benzamide] is less than 500 nM; for `COc1cccc(N2CN(C)C(=O)C23CCN(C(=O)[C@H](NC(=O)c2cccc(C)c2)C(C)C)CC3)c1` [Example 198, (R)—N-(1-(1-(3-Methoxyphenyl)-3-methyl-4-oxo-1,3,8-triazaspiro[4.5]decan-8-yl)-3-methyl-1-oxobutan-2-yl)-3-methylbenzamide] it is less than 500 nM. The figure for `CCc1cccc(C(=O)N[C@@H](C(=O)N2CCC3(CC2)C(=O)N(C)C(=O)N3c2ccccc2)C(C)C)c1` [Example 46, (R)-3-Ethyl-N-(3-methyl-1-(3-methyl-2,4-dioxo-1-phenyl-1,3,8-triazaspiro[4.5]decan-8-yl)-1-oxobutan-2-yl)benzamide] is 500 to 1000 nM. Regarding `CC(C)[C@@H](NC(=O)c1cc(C(F)(F)F)ccc1F)C(=O)N1CCC2(CC1)C(=O)N(C)C(=O)N2c1cccc(C#N)c1` [Example 8, (R)—N-(1-(1-(3-Cyanophenyl)-3-methyl-2,4-dioxo-1,3,8-triazaspiro[4.5]decan-8-yl)-3-methyl-1-oxobutan-2-yl)-2-fluoro-5-(trifluoromethyl)benzamide], the IC50 was less than 500 nM. In the case of `COC1CCC(N2C(=O)N(C)C(=O)C23CCN(C(=O)[C@H](NC(=O)c2cc(C(F)(F)F)ccc2F)C(C)C)CC3)CC1` (stereo partly drawn) [Example 241, (R)-2-Fluoro-N-(1-(1-(4-methoxycyclohexyl)-3-methyl-2,4-dioxo-1,3,8-triazaspiro[4.5]decan-8-yl)-3-methyl-1-oxobutan-2-yl)-5-(trifluoromethyl)benzamide] it was not below 1000 nM; in that of `CC(C)[C@@H](NC(=O)c1cc(C(F)(F)F)ccc1F)C(=O)N1CCC2(CC1)C(=O)N(C)C(=O)N2c1ccc2c(c1)OCC(=O)N2` [Example 30, (R)-2-Fluoro-N-(3-methyl-1-(3-methyl-2,4-dioxo-1-(3-oxo-3,4-dihydro-2H-benzo[b][1,4]oxazin-7-yl)-1,3,8-triazaspiro[4.5]decan-8-yl)-1-oxobutan-2-yl)-5-(trifluoromethyl)benzamide], 500 to 1000 nM. In the case of `CC(C)[C@@H](NC(=O)c1cccnc1)C(=O)N1CCC2(CC1)C(=O)N(C)C(=O)N2c1ccc2[nH]ncc2c1` [Example 229, (R)—N-(1-(1-(1H-Indazol-5-yl)-3-methyl-2,4-dioxo-1,3,8-triazaspiro[4.5]decan-8-yl)-3-methyl-1-oxobutan-2-yl)nicotinamide] it was not below 1000 nM; in that of `COc1ccc(N2C(=O)N(C)C(=O)C23CCN(C(=O)[C@H](NC(=O)c2cc(C(F)(F)F)ccc2F)C(C)C)CC3)cc1F` [Example 6, (R)-2-Fluoro-N-(1-(1-(3-fluoro-4-methoxyphenyl)-3-methyl-2,4-dioxo-1,3,8-triazaspiro[4.5]decan-8-yl)-3-methyl-1-oxobutan-2-yl)-5-(trifluoromethyl)benzamide], less than 500 nM. The figure for `CC(C)[C@@H](NC(=O)c1cc(C(F)(F)F)ccc1F)C(=O)N1CCC2(CC1)C(=O)N(C)C(=O)N2Cc1ccccc1` [Example 89, (R)—N-(1-(1-Benzyl-3-methyl-2,4-dioxo-1,3,8-triazaspiro[4.5]decan-8-yl)-3-methyl-1-oxobutan-2-yl)-2-fluoro-5-(trifluoromethyl)benzamide] is less than 500 nM. On to `CC(C)[C@@H](NC(=O)c1cc(C(F)(F)F)ccc1F)C(=O)N1CCC2(CC1)C(=O)N(C)C(=O)N2c1ccc(NC2COC2)cc1` [Example 87, (R)-2-Fluoro-N-(3-methyl-1-(3-methyl-1-(4-(oxetan-3-ylamino)phenyl)-2,4-dioxo-1,3,8-triazaspiro[4.5]decan-8-yl)-1-oxobutan-2-yl)-5-(trifluoromethyl)benzamide], for which the IC50 was not below 1000 nM. On to `CC(C)[C@@H](NC(=O)c1cc(C(F)(F)F)ccc1F)C(=O)N1CCC2(CC1)C(=O)N(C)C(=O)N2c1ccccn1` [Example 188, (R)-2-Fluoro-N-(3-methyl-1-(3-methyl-2,4-dioxo-1-(pyridin-2-yl)-1,3,8-triaza-spiro[4.5]decan-8-yl)-1-oxobutan-2-yl)-5-(trifluoromethyl)benzamide], for which the IC50 lay within 500 to 1000 nM.

As to `CC(C)[C@@H](NC(=O)c1cc(C(F)(F)F)ccc1F)C(=O)N1CCC2(CC1)C(=O)N(C)C(=O)N2c1ccc(C#N)cc1` [Example 7, (R)—N-(1-(1-(4-Cyanophenyl)-3-methyl-2,4-dioxo-1,3,8-triazaspiro[4.5]decan-8-yl)-3-methyl-1-oxobutan-2-yl)-2-fluoro-5-(trifluoromethyl)benzamide], the IC50 was less than 500 nM. The figure for `Cc1ccc(C(F)(F)F)cc1C(=O)N[C@@H](C(=O)N1CCC2(CC1)C(=O)N(C)CN2c1ccc(C(=O)O)cc1)C(C)C` [Example 161, (R)-4-(3-Methyl-8-(3-methyl-2-(2-methyl-5-(trifluoromethyl)benzamido)butanoyl)-4-oxo-1,3,8-triazaspiro[4.5]decan-1-yl)benzoic Acid] is 500 to 1000 nM; for `CC(C)[C@@H](NC(=O)c1cc(C(F)(F)F)ccc1F)C(=O)N1CCC2(CC1)C(=O)N(C)CN2c1ccc(C(=O)O)cc1` [Example 149, (R)-4-(8-(2-(2-Fluoro-5-(trifluoromethyl)benzamido)-3-methylbutanoyl)-3-methyl-4-oxo-1,3,8-triazaspiro[4.5]decan-1-yl)benzoic Acid] it is less than 500 nM; for `CC(C)[C@@H](NC(=O)c1cc(C(F)(F)F)ccc1F)C(=O)N1CCC2(CC1)C(=O)N(C)C(=O)N2Cc1ccnc(C#N)c1` [Example 113] it is not below 1000 nM. The figure for `Cc1cccc(C(=O)N[C@@H](C(=O)N2CCC3(CC2)C(=O)N(C)CN3c2cccc(Cl)c2)C(C)C)c1` [Example 192, (R)—N-(1-(1-(3-Chlorophenyl)-3-methyl-4-oxo-1,3,8-triazaspiro[4.5]decan-8-yl)-3-methyl-1-oxobutan-2-yl)-3-methylbenzamide] is less than 500 nM; for `CCc1ccc(F)c(C(=O)N[C@@H](C(=O)N2CCC3(CC2)C(=O)N(C)CN3c2ccccc2)[C@H](C)OC)c1` [Example 133, 5-Ethyl-2-fluoro-N-((2R,3S)-3-methoxy-1-(3-methyl-4-oxo-1-phenyl-1,3,8-triazaspiro[4.5]decane-8-yl)-1-oxobutan-2-yl)benzamide] it is less than 500 nM. `CC(C)[C@@H](NC(=O)c1cc(C(F)(F)F)ccc1F)C(=O)N1CCC2(CC1)C(=O)N(C)C(=O)N2c1cccnc1` [Example 189, (R)-2-Fluoro-N-(3-methyl-1-(3-methyl-2,4-dioxo-1-(pyridin-3-yl)-1,3,8-triaza-spiro[4.5]decan-8-yl)-1-oxobutan-2-yl)-5-(trifluoromethyl)benzamide]: the IC50 fell in the range of 500 to 1000 nM. In the case of `CC(C)[C@@H](NC(=O)c1cc(Cl)cc(C(F)(F)F)c1)C(=O)N1CCC2(CC1)C(=O)N(C)C(=O)N2c1ccc2[nH]ncc2c1` [Example 60, (R)—N-(1-(1-(1H-Indazol-5-yl)-3-methyl-2,4-dioxo-1,3,8-triazaspiro[4.5]decan-8-yl)-3-methyl-1-oxobutan-2-yl)-3-chloro-5-(trifluoromethyl)benzamide] it was less than 500 nM; in that of `CC(C)[C@@H](NC(=O)c1cc(C(F)(F)F)ccc1F)C(=O)N1CCC2(CC1)C(=O)N(C)C(=O)N2Cc1cccc(C#N)c1` [Example 101, (R)—N-(1-(1-(3-Cyanobenzyl)-3-methyl-2,4-dioxo-1,3,8-triazaspiro[4.5]decan-8-yl)-3-methyl-1-oxobutan-2-yl)-2-fluoro-5-(trifluoromethyl)benzamide], less than 500 nM.

On to `CC(C)[C@@H](NC(=O)c1cc(C(F)(F)F)ccc1F)C(=O)N1CCC2(CC1)C(=O)N(C)C(=O)N2c1ccc(-c2nn[nH]n2)cc1` [Example 224, (R)—N-(1-(1-(4-(2H-Tetrazol-5-yl)phenyl)-3-methyl-2,4-dioxo-1,3,8-triazaspiro[4.5]decan-8-yl)-3-methyl-1-oxobutan-2-yl)-2-fluoro-5-(trifluoromethyl)benzamide], for which the IC50 is less than 500 nM.

Regarding `COc1ccc(CN2C(=O)N(C)C(=O)C23CCN(C(=O)[C@H](NC(=O)c2cc(C(F)(F)F)ccc2F)C(C)C)CC3)c(F)c1` [Example 108, (R)-2-Fluoro-N-(1-(1-(2-fluoro-4-methoxybenzyl)-3-methyl-2,4-dioxo-1,3,8-triazaspiro[4.5]decan-8-yl)-3-methyl-1-oxobutan-2-yl)-5-(trifluoromethyl)benzamide], the half-inhibitory concentration (IC50) was less than 500 nM.

Take `CC(C)[C@@H](NC(=O)c1cc(C(F)(F)F)ccc1F)C(=O)N1CCC2(CC1)C(=O)N(C)C(=O)N2c1ccc2c(c1)OCCN2` [Example 21, (R)—N-(1-(1-(3,4-Dihydro-2H-benzo[b][1,4]oxazin-7-yl)-3-methyl-2,4-dioxo-1,3,8-triazaspiro[4.5]decan-8-yl)-3-methyl-1-oxobutan-2-yl)-2-fluoro-5-(trifluoromethyl)benzamide]: the 50% inhibitory concentration (IC50) is less than 500 nM.

In general, IC50 refers to the concentration that inhibits the measured activity by half.
